Test results as given in US12532889B2, “Herbicidal compositions comprising glufosinate” (BASF SE, priority 2023, dated 2026).
Several values for one entry are separate records, joined by “and”; a condition that tells them apart may be missing. Equal entries are not always repeated.

Legend:
Test in all cases: Post-emergence application in field trials (Example A)
Type in all cases: in vivo
[1] = test system: LOLMU (Lolium multiflorum); settings: growth stage 22-25, height 20-25 cm
Method: (§1) In the examples below, using the method of S. R. Colby (1967) “Calculating synergistic and antagonistic responses of herbicide combinations”, Weeds 15, p. 22ff., the value E, which is expected if the activity of the individual active compounds is only additive, was calculated:
(§2) [formula] • where • X=percent activity using active herbicide A at an application rate a; • Y=percent activity using active herbicide B (e.g. glufosinate) at an application rate b; • E=expected activity (in %) by A+B at application rates a+b.
(§3) If the value found experimentally is higher than the value E calculated according to Colby, a synergistic effect is present.
(§4) On field test sites, natural weed infestation or seeded weeds were treated post-emergence of the weeds.
(§5) In the field trials, the weeds were treated as indicated below.
(§6) In the following experiments, the herbicidal activity for the individual herbicidal compositions (solo and mixture applications) was assessed at the indicated days after treatment (DAT). The assessments for the damage on undesired weeds caused by the composition was carried out using a scale from 0 to 100%, compared to the untreated control plants. Here, 0 means no damage and 100 means complete destruction of the plants.

[2] = test system: ECHCG (Echinocloa crus-galli); settings: growth stage 23-30, height 15-20 cm
Method: as §1, §2, §3, §4, §5, §6

GLXMA (Glycine max) = settings: 42 DAT, growth stage 13, height 5-10 cm
Method: as §1, §2, §3, §4, §5, §6

[3] = test system: DIGSA (Digitaria sanguinalis); settings: height 10-15 cm
Method: as §1, §2, §3, §4, §5, §6

[4] = test system: HORVW (Hordeum vulgare (winter barley)); settings: growth stage 23-29, height 20-25 cm
Method: as §1, §2, §3, §4, §5, §6

ZEAMX (Zea mays) = settings: C-4 12.5 g ai/ha, growth stage 15-16
Method: as §1, §2, §3, §4, §5, §6

[5] = test system: SETVE (Setaria verticillata); settings: 42 DAT; C-4 12.5 g ai/ha; growth stage 21-23; height 8-16 cm
Method: as §1, §2, §3, §4, §5, §6

**Q.** Which results are given for CC(C)N(C)S(=O)(=O)NC(=O)c1cc(-n2c(=O)cc(C(F)(F)F)n(C)c2=O)c(F)cc1Cl [C-1, saflufenacil]?
**A.** % Herbicidal activity ([1]; 7 DAT, C-1 12.5 g ai/ha): 20%; % Herbicidal activity ([1]; 28 DAT, C-1 12.5 g ai/ha): 20%; % Herbicidal activity ([2]; 7 DAT, C-1 12.5 g ai/ha): 20%; % Herbicidal activity ([2]; 28 DAT, C-1 12.5 g ai/ha): 20%; % Herbicidal activity (GLXMA (Glycine max); C-1 12.5 g ai/ha): 60%; % Herbicidal activity ([3]; 20 DAT, C-1 12.5 g ai/ha, growth stage 21-22): 20%; % Herbicidal activity ([4]; 7 DAT, C-1 12.5 g ai/ha): 20%

**Q.** What does the source list for C#CCN1C(=O)C(F)(F)Oc2cc(F)c(-n3c(=O)n(C)c(=S)n(C)c3=O)cc21 [C-4, trifludimoxazin]?
**A.** % Herbicidal activity ([1]; 7 DAT, C-4 12.5 g ai/ha): 40%; % Herbicidal activity ([1]; 28 DAT, C-4 12.5 g ai/ha): 30%; % Herbicidal activity ([2]; 7 DAT, C-4 12.5 g ai/ha): 40%; % Herbicidal activity ([2]; 21 DAT, C-4 12.5 g ai/ha): 20%; % Herbicidal activity ([2]; 28 DAT, C-4 12.5 g ai/ha): 40% and 20%; % Herbicidal activity (GLXMA (Glycine max); C-4 12.5 g ai/ha): 60%; % Herbicidal activity (ZEAMX (Zea mays); 21 DAT, height 27-33 cm): 30%; % Herbicidal activity (ZEAMX (Zea mays); 28 DAT, height 50-60 cm): 30%; % Herbicidal activity (ZEAMX (Zea mays); 42 DAT, height 27-33 cm): 25% and 20%; % Herbicidal activity ([3]; 7 DAT, C-4 12.5 g ai/ha, growth stage 22): 40%; % Herbicidal activity ([3]; 21 DAT, C-4 12.5 g ai/ha, growth stage 22): 40%; % Herbicidal activity ([3]; 41 DAT, C-4 12.5 g ai/ha, growth stage 22): 25%; % Herbicidal activity ([3]; 42 DAT, C-4 12.5 g ai/ha, growth stage 22): 25%; % Herbicidal activity [5]: 25%; % Herbicidal activity ([4]; 7 DAT, C-4 12.5 g ai/ha): 40% and 30%; % Herbicidal activity ([4]; 21 DAT, C-4 12.5 g ai/ha): 30%
